# What was measured:
# [1] = Preclinical safety observations; format: in vivo
# From the text: The inclusion/exclusion criteria, dose modification guidelines and safety assessments in this FIH trial account for both the disease indications and preclinical safety profile of I-57 and PDR001. Of note are the provisions put in place for the risk of autoimmune events for both PDR001 and potentially I-57.
# [2] = test system: IKZF2 expression in FOXP3+ T cells from PBMCs; assay: PD after repeated daily oral dosing in immunized cynomolgus monkeys: IKZF2 by flow cytometry (FIG. 9A); format: in vivo, cynomolgus monkey
# Description: FIG. 9A. is a graph showing the degradation of IKZF2 measured in FOXP3+ T cells upon repeated daily dosing in immunized cynomolgus monkeys treated daily with Compound I-57. Compound treatment was initiated at day 5.
# (§1) The PK/PD relationship of I-57 was further examined in cynomolgus monkeys after repeated daily oral doses of 0.1 and 3 mg/kg. In this study, a cohort of animals were initially immunized with an antigen-adjuvant mixture (KLH/Squalene). The experiment was designed to assess the effect of I-57 exposure, and the resulting IKZF2 degradation, on immune response during immunization to test the hypothesis that IKZF2 degradation would result in increased proliferation of stimulated T-cells. In the experiment, daily I-57 oral treatment was initiated 5 days after immunization. An immunization booster dose was administered on day 15. I-57 plasma concentration and IKZF2 expression (as determined by flow cytometry) in FOXP3+ T cells from PBMCs were determined (FIG. 9A and FIG. 9B).
# Consistent with previous findings, IKZF2 degradation was detected 24 h after the first dose (at day 6) (FIG. 9A and FIG. 9B). The levels of IKZF2 decreased further upon repeat dosing and reached a steady-state level approximately 72 h after initiation of treatment. This level of degradation was maintained throughout the remainder of the treatment (24 days).
# peripheral T cells = assay: Proliferation of peripheral T cells (Ki67) in KLH/Squalene immunized cynomolgus monkeys (FIG. 9B); format: in vivo, cynomolgus monkey; conditions: 3 mg/kg group
# Description: FIG. 9B. is a graph showing proliferation of peripheral T cells (Mean+/−SEM, % of predose) upon treatment with 0.1 and 3 mg/kg of Compound I-57 in cynomolgus monkeys.
# as §1
# In order to measure the impact of I-57 treatment on the immune response following immunization, serum anti-KLH IG levels were measured longitudinally, and levels of T cell activation were measured in PBMCs by flow cytometry. […] In contrast, the proportion of proliferative peripheral T cells (denoted by Ki67 staining) was increased in the highest dose group (3 mg/kg) in the recall response phase, compared to immunization alone.
# [3] = Toxicology in rats (5-day and 4-week GLP studies); format: in vivo
# From the text: The non-clinical safety profile of I-57 was established in vitro, and in vivo in rats and cynomolgus monkeys in studies up to 4-weeks duration. Based on the outcome of these studies, QTc interval prolongation was identified as the principal safety signal for I-57. There were other toxicities such as diarrhea and vomiting in monkeys, and mortality, clinical signs and target organ toxicities in rats; however, these occurred at exposures far above those expected to result in clinical activity.
# Clinical signs, decreases in body weight and food consumption, and clinical pathology changes reflecting inflammation, renal and liver injury, and stress were generally evident in the pre-terminal animals. Kidney toxicity was evident in rats at doses >100 mg/kg/day and was characterized by increased weight, hematuria, proteinuria, with or without increased blood urea and creatinine, degeneration, regeneration and inflammation at 300 mg/kg/day.
# Similar exposure in the clinic would require doses in human of approximately 2,000 and 5,000 mg QD based on the human PK model. Activity is anticipated well below this dose level.
# [4] = In vivo non-clinical PK / high dose PK and toxicology exposure; set-up: species or system cynomolgus monkey; conditions: monkey
# Description: (§2) The in vivo non-clinical PK profile of I-57 was investigated in mouse, rat, dog and cynomolgus monkey using I-57 free base. […] After p.o. administration, the absorption of I-57 was rapid with peak blood concentration (Tmax) occurring between 1 and 4 hours. […] In high dose PK and toxicology studies with I-57 the exposures in mouse, rat and monkey increased with dose.
# [5] = PK in repeated oral dose study, MDA-MB231 xenograft human PBMC adoptive transfer mouse model (Table 14); format: in vivo; conditions: for AUCinf (unbound) / Cmax (unbound): mouse, unbound (73% PPB in mouse)
# Description: FIG. 6 is a pictorial representation of the multi-dose PK/PD study design in the human PBMC adoptive transfer mouse model harboring MDA-MB231 xenografts. Fourteen consecutive daily doses of Compound I-57 was administered at 0.3 mg/kg, 1 mg/kg, 3 mg/kg or 30 mg/kg.
# The PK/PD relationship of I-57 was examined in the hPBMC AdT model system. Human PBMCs were adoptively transferred into female NSG mice harboring established MDA-MB231 xenografts (FIG. 6). This model was selected based on the observation that IKZF2 positive Tregs (CD4+FOXP3+) were readily identifiable in peripheral blood and infiltrated in the tumor xenografts.
# Mice were administered I-57 daily for 14 consecutive days at the doses shown. Longitudinal I-57 plasma concentrations were assessed (Table 14).
# Based on the data from this hPBMC AdT mouse model, unbound I-57 (73% percent plasma binding in the mouse) exposures (AUCinf) of 7, 30, 157 and 3474 ng*h/mL are required to achieve the reduction of IKZF2 positivity (via flow cytometry) in tumor Tregs by 31, 43, 56, and 75%, respectively. The relationship between the magnitude and duration of I-57-mediated IKZF2 degradation and subsequent modulation of therapeutically relevant downstream biology is not yet well understood.
# [6] = In vivo non-clinical PK / high dose PK; conditions: mouse; between 3 mg/kg and 100 mg/kg
# Description: as §2
# The binding to plasma protein of I-57 in vitro was moderate in all species, with an observed difference between rodents (73% in mouse, 76% in rat) and non-rodents (52% in dog and monkey, 54% in human). Blood-to-plasma ratios were in the range of 0.7-1.8 (human 1.1-1.3). […] Based on results with non-radiolabeled I-57 in the dog, a significant amount of unchanged I-57 was renally eliminated (˜20% of dose).
# [7] = p.o. 0.3 mg/kg daily, post 1st dose
# [8] = p.o. 0.3 mg/kg daily, post 13th dose
# [9] = p.o. 1 mg/kg daily, post 1st dose
# [10] = p.o. 1 mg/kg daily, post 13th dose
# [11] = p.o. 3 mg/kg daily, post 1st dose
# [12] = p.o. 3 mg/kg daily, post 13th dose
# [13] = p.o. 30 mg/kg daily, post 1st dose
# [14] = p.o. 30 mg/kg daily, post 13th dose
compound,measurement,setting,value
"O=C1CCC(N2Cc3cc(C4CCN(Cc5ccccc5)CC4)ccc3C2=O)C(=O)N1 (stereo not shown) [Compound I-57, 3-(5-(1-benzylpiperidin-4-yl)-1-oxoisoindolin-2-yl)piperidine-2,6-dione]",preclinical observation (ECG),[1],QTc prolongation
same,preclinical observation (urine),[1],hematuria and proteinuria
same,time to steady-state level of IKZF2,"[2]; after initiation of treatment, repeat daily dosing",approximately 72 h
same,time at which IKZF2 degradation was detected,"[2]; after the first dose (at day 6), daily oral 0.1 and 3 mg/kg",24 h
same,levels of Ki67 until the end of the study,peripheral T cells,remained elevated
same,human dose required for similar exposure (AUC),"[3]; exposure associated with mortality and toxicity in rats at 300 mg/kg, human PK model","~5,000 mg QD"
same,urinary bladder findings,"[3]; rat, in vivo, 300 mg/kg/day",Degenerative changes
same,doses at which kidney toxicity was evident,[3]; rats,> 100 mg/kg/day
same,doses at which mortality occurred,"[3]; rats, females",> 300 mg/kg/day
same,increase in AUC with dose,[4]; above 100 mg/kg,less than dose proportional
same,increase in AUC with dose,[4]; between 10 mg/kg and 100 mg/kg,slightly over-proportional
same,increase in AUC and Cmax with dose,"[5]; between 3 and 30 mg/kg, daily oral",over-dose proportional increase
same,increase in overall AUC and Cmax with dose,"[5]; from 0.3 to 3 mg/kg, daily oral",dose proportional increase
same,AUCinf (unbound),[5]; [7],7.1 ng·h/mL
same,Cmax (unbound),[5]; [7],2.9 ng/mL
same,AUCinf (unbound),[5]; [8],7.5 ng·h/mL
same,Cmax (unbound),[5]; [8],1.1 ng/mL
same,AUCinf (unbound),[5]; [9],30 ng·h/mL
same,Cmax (unbound),[5]; [9],8.8 ng/mL
same,AUCinf (unbound),[5]; [10],20 ng·h/mL
same,Cmax (unbound),[5]; [10],4.6 ng/mL
same,AUCinf (unbound),[5]; [11],157 ng·h/mL
same,Cmax (unbound),[5]; [11],53 ng/mL
same,AUCinf (unbound),[5]; [12],92 ng·h/mL
same,Cmax (unbound),[5]; [12],27 ng/mL
same,AUCinf (unbound),[5]; [13],3470 ng·h/mL
same,Cmax (unbound),[5]; [13],1250 ng/mL
same,AUCinf (unbound),[5]; [14],4270 ng·h/mL
same,Cmax (unbound),[5]; [14],1300 ng/mL
same,unbound exposure (AUCinf),[5]; required for reduction of IKZF2 positivity in tumor Tregs by 31%,7 ng·h/mL
same,unbound exposure (AUCinf),[5]; required for reduction of IKZF2 positivity in tumor Tregs by 43%,30 ng·h/mL
same,unbound exposure (AUCinf),[5]; required for reduction of IKZF2 positivity in tumor Tregs by 56%,157 ng·h/mL
same,unbound exposure (AUCinf),[5]; required for reduction of IKZF2 positivity in tumor Tregs by 75%,3474 ng·h/mL
same,increase in AUC with dose,[6],roughly dose proportional

# — patent US20240245670A1, “DOSING REGIMEN AND PHARMACEUTICAL COMBINATION COMPRISING 3-(1-OXOISOINDOLIN-2-YL)PIPERIDINE-2,6-DIONE DERIVATIVES” (Novartis AG, priority 2018, published 2024)
